What was measured:
[1] = tested on: gastric acid secretion; experiment: Gastric antisecretory activity in the gastric fistula rat; format: in vivo, Long Evans rats; conditions: sc, relative to cimetidine
[2] = target: T1, histamine H2-receptors (Cavia porcellus, UniProt P47747); experiment: Histamine H2-receptor antagonism, isolated guinea pig right atria assay; format: cell-based, Hartley strain guinea pigs; conditions: for Kb: Schild plot, 30-minute incubation, 95% confidence limits in parentheses, read-out: KB (dissociation constant); for Potency Ratio (cimetidine = 1.0): relative to cimetidine
T1 construct: The spontaneously beating right atrium was dissected free from other tissues; from tissue; host or cells: isolated right atrium of male Hartley strain guinea pigs
T1 sequence (P47747 whole entry): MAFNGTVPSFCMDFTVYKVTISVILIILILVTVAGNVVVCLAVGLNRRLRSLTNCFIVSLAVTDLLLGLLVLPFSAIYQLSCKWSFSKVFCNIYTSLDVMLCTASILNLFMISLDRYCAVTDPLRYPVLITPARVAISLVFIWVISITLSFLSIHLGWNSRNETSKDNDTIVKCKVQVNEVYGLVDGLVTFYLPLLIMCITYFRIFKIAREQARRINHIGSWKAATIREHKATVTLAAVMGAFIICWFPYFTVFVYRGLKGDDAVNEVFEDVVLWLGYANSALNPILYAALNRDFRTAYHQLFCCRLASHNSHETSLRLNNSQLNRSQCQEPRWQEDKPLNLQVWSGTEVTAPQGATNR
Method: Subsequent investigations by Hughes and Coret, Proc. Soc. […] Black et al., Agents and Actions, 3, 133 (1973) and Brimblecombe et al., Fed. […] The present comparative studies were carried out using a modification of the procedure reported by Reinhardt et al., Agents and Actions, 4, 217 (1974).
The spontaneously beating right atrium was dissected free from other tissues and a silk thread (4-0) attached to each end. […] Atrial contractions were recorded isometrically by means of a Grass FT 0.03 force displacement transducer and recordings of contractile force and rate were made with a Beckman RP Dynograph.

[3] = tested on: peptic ulcer disease; conditions: clinical evaluation, Gray et al., Lancet, 1, 8001 (1977); cited from earlier work

Row | Kb [2] [nM] | Potency Ratio (cimetidine = 1.0) [2] | Compound | Potency Ratio (cimetidine = 1.0) [1] | effect in treatment of peptic ulcer disease [3]
1 | 3 | 137 | Nc1nsnc1NCCCOc1cccc(CN2CCCCC2)c1 [Example 1, 3-Amino-4-[3-(3-piperidinomethylphenoxy)propylamino]-1,2,5-thiadiazole] | 37 | 
2 |  |  | CN(C)Cc1ccc(CSCCNc2nsnc2N)o1 [Example 2, 3-Amino-4-{2-[(5-dimethylaminomethyl-2-furyl)methylthio]ethylamino}-1,2,5-thiadiazole] | 4.5 | 
3 |  |  | Cc1cc(CSCCNc2nsnc2N)sc1CN(C)C [Example 3, 3-Amino-4-{2-[(5-dimethylaminomethyl-4-methyl-2-thienyl)methylthio]ethylamino}-1,2,5-thiadiazole] | ~ 7 | 
4 | 4 | 102 | Nc1nsnc1NCCCOc1cccc(CN2CCCC2)c1 [Example 4, 3-Amino-4-[3-(3-pyrrolidinomethylphenoxy)propylamino]-1,2,5-thiadiazole] | 20 | 
5 |  |  | CN/C(=N/CCSCc1nc[nH]c1C)NC#N [cimetidine] |  | effective therapeutic agent in the treatment of peptic ulcer disease
